Read-outs that look alike come from different tables or passages of the source.
How the values were obtained:
Type in all cases: in vivo
[1] = tested on: morningglory (Ipomoea spp.); assay: Test A pre-/postemergence greenhouse herbicide test, visual injury rating 0-100; details: for pest or weed control at 500 g/ha: 500 g ai/ha
In short: (§1)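 Seeds sown in loam soil–sand blend; preemergence directed soil spray and, simultaneously, postemergence spray on plants 2 to 10 cm tall at one- to two-leaf stage. Compounds formulated in non-phytotoxic solvent mixture with surfactant. Injury rated visually versus untreated controls after ~10 days in greenhouse.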

[2] = tested on: wheat (Triticum aestivum); assay: as above; details: for plant injury at 500 g/ha: 500 g ai/ha
In short: as §1

[3] = tested on: barnyardgrass (Echinochloa crus-galli); assay: as above; details: for pest or weed control at 500 g/ha: 500 g ai/ha
In short: as §1

[4] = tested on: pigweed (Amaranthus retroflexus); assay: as above; details: for pest or weed control at 500 g/ha: 500 g ai/ha
In short: as §1

[5] = tested on: velvetleaf (Abutilon theophrasti); assay: as above; details: for pest or weed control at 500 g/ha: 500 g ai/ha
In short: as §1

[6] = tested on: large (Lg) crabgrass (Digitaria sanguinalis); assay: as above; details: for pest or weed control at 500 g/ha: 500 g ai/ha
In short: as §1

corn (Zea mays) = assay: as above; details: for plant injury at 500 g/ha: 500 g ai/ha
In short: as §1

[7] = tested on: giant foxtail (Setaria faberii); assay: as above; details: for pest or weed control at 500 g/ha: 500 g ai/ha
In short: as §1

[8] = tested on: morningglory (Ipomoea coccinea); assay: Test C pre-/postemergence greenhouse test, plant response rating 0-100; details: Ipomoea; for pest or weed control at 62 g/ha: 62 g ai/ha; for pest or weed control at 125 g/ha: 125 g ai/ha; for pest or weed control at 250 g/ha: 250 g ai/ha
In short: (§2)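 Formulated in solvent with surfactant, test chemicals were sprayed on seeded loam/sand pots and, concurrently, on young plants 2–18 cm tall. Evaluation: visual, versus controls, day 13–15.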

[9] = tested on: blackgrass (Alopecurus myosuroides); assay: as above; details: Alopecurus myosuroides; for pest or weed control at 62 g/ha: 62 g ai/ha; for pest or weed control at 125 g/ha: 125 g ai/ha; for pest or weed control at 250 g/ha: 250 g ai/ha
In short: as §2

[10] = tested on: ragweed (common ragweed, Ambrosia elatior); assay: as above; details: Ambrosia artemisiifolia; for pest or weed control at 62 g/ha: 62 g ai/ha; for pest or weed control at 125 g/ha: 125 g ai/ha; for pest or weed control at 250 g/ha: 250 g ai/ha
In short: as §2

[11] = tested on: velvetleaf (Abutilon theophrasti); assay: as above; details: Abutilon theophrasti; for pest or weed control at 62 g/ha: 62 g ai/ha; for pest or weed control at 125 g/ha: 125 g ai/ha; for pest or weed control at 250 g/ha: 250 g ai/ha
In short: as §2

[12] = tested on: large (Lg) crabgrass (Digitaria sanguinalis); assay: as above; details: Digitaria sanguinalis; for pest or weed control at 62 g/ha: 62 g ai/ha; for pest or weed control at 125 g/ha: 125 g ai/ha; for pest or weed control at 250 g/ha: 250 g ai/ha
In short: as §2

[13] = post-emergence, Postemergence, read-out: Plant response rating (0 to 100), Morningglory
[14] = post-emergence, Postemergence, scale 0 to 100
[15] = pre-emergence, Preemergence, read-out: Plant response rating, Morningglory
[16] = pre-emergence, Preemergence, 500 g ai/ha
[17] = post-emergence, Postemergence, read-out: Plant response rating (0 to 100), Blackgrass
[18] = pre-emergence, Preemergence, read-out: Plant response rating, Blackgrass
[19] = post-emergence, Postemergence, read-out: Plant response rating (0 to 100), Ragweed
[20] = pre-emergence, Preemergence, read-out: Plant response rating, Ragweed
[21] = post-emergence, Postemergence, read-out: Plant response rating (0 to 100), Velvetleaf
[22] = pre-emergence, Preemergence, read-out: Plant response rating, Velvetleaf
[23] = post-emergence, Postemergence, read-out: Plant response rating (0 to 100), Crabgrass, Large
[24] = pre-emergence, Preemergence, read-out: Plant response rating, Crabgrass, Large

Cn1cc(C(=O)c2ccccc2)c(-c2cc(Cl)cc(Cl)c2)n1 [Compound 54, [3-(3,5-dichlorophenyl)-1-methyl-1H-pyrazol-4-yl]phenylmethanone]
pest or weed control at 125 g/ha ([1]; Ipomoea, post-emergence, 240 h, Postemergence, 125 g ai/ha, read-out: Plant response rating (0 to 100 scale), Morningglory): 0%
pest or weed control at 500 g/ha ([1]; Ipomoea, post-emergence, 240 h, Postemergence, read-out: Plant response rating (0 to 100 scale), Morningglory): 0%
pest or weed control at 500 g/ha ([1]; Ipomoea, pre-emergence, 240 h, Preemergence, read-out: Plant response rating (0 to 100 scale), Morningglory): 0%
Morningglory plant response rating (0 = no effect, 100 = complete control) ([1]; Preemergence, 125 g ai/ha): 0
Wheat plant response rating (0 = no effect, 100 = complete control) ([2]; Preemergence, 125 g ai/ha): 0
plant injury at 125 g/ha ([2]; Triticum aestivum, post-emergence, 240 h, Postemergence, 125 g ai/ha, read-out: Plant response rating (0 to 100 scale), Wheat): 0%
plant injury at 500 g/ha ([2]; Triticum aestivum, post-emergence, 240 h, Postemergence, read-out: Plant response rating (0 to 100 scale), Wheat): 0%
plant injury at 500 g/ha ([2]; Triticum aestivum, pre-emergence, 240 h, Preemergence, read-out: Plant response rating (0 to 100 scale), Wheat): 0%
pest or weed control at 125 g/ha ([3]; Echinochloa crus-galli, post-emergence, 240 h, Postemergence, 125 g ai/ha, read-out: Plant response rating (0 to 100 scale), Barnyardgrass): 0%
pest or weed control at 500 g/ha ([3]; Echinochloa crus-galli, post-emergence, 240 h, Postemergence, read-out: Plant response rating (0 to 100 scale), Barnyardgrass): 0%
pest or weed control at 500 g/ha ([3]; Echinochloa crus-galli, pre-emergence, 240 h, Preemergence, read-out: Plant response rating (0 to 100 scale), Barnyardgrass): 0%
Barnyardgrass plant response rating (0 = no effect, 100 = complete control) ([3]; Preemergence, 125 g ai/ha): 0
pest or weed control at 125 g/ha ([4]; Amaranthus retroflexus, post-emergence, 240 h, Postemergence, 125 g ai/ha, read-out: Plant response rating (0 to 100 scale), Pigweed): 90%
pest or weed control at 500 g/ha ([4]; Amaranthus retroflexus, post-emergence, 240 h, Postemergence, read-out: Plant response rating (0 to 100 scale), Pigweed): 100%
pest or weed control at 500 g/ha ([4]; Amaranthus retroflexus, pre-emergence, 240 h, Preemergence, read-out: Plant response rating (0 to 100 scale), Pigweed): 90%
Pigweed plant response rating (0 = no effect, 100 = complete control) ([4]; Preemergence, 125 g ai/ha): 50
pest or weed control at 125 g/ha ([5]; Abutilon theophrasti, post-emergence, 240 h, Postemergence, 125 g ai/ha, read-out: Plant response rating (0 to 100 scale), Velvetleaf): 90%
pest or weed control at 500 g/ha ([5]; Abutilon theophrasti, post-emergence, 240 h, Postemergence, read-out: Plant response rating (0 to 100 scale), Velvetleaf): 100%
pest or weed control at 500 g/ha ([5]; Abutilon theophrasti, pre-emergence, 240 h, Preemergence, read-out: Plant response rating (0 to 100 scale), Velvetleaf): 60%
Velvetleaf plant response rating (0 = no effect, 100 = complete control) ([5]; Preemergence, 125 g ai/ha): 30
pest or weed control at 125 g/ha ([6]; Digitaria sanguinalis, post-emergence, 240 h, Postemergence, 125 g ai/ha, read-out: Plant response rating (0 to 100 scale), Crabgrass, Large): 0%
pest or weed control at 500 g/ha ([6]; Digitaria sanguinalis, post-emergence, 240 h, Postemergence, read-out: Plant response rating (0 to 100 scale), Crabgrass, Large): 0%
pest or weed control at 500 g/ha ([6]; Digitaria sanguinalis, pre-emergence, 240 h, Preemergence, read-out: Plant response rating (0 to 100 scale), Crabgrass, Large): 0%
Crabgrass, Large plant response rating (0 = no effect, 100 = complete control) ([6]; Preemergence, 125 g ai/ha): 0
Corn plant response rating (0 = no effect, 100 = complete control) (corn (Zea mays); Preemergence, 125 g ai/ha): 0
plant injury at 125 g/ha (corn (Zea mays); Zea mays, post-emergence, 240 h, Postemergence, 125 g ai/ha, read-out: Plant response rating (0 to 100 scale), Corn): 0%
plant injury at 500 g/ha (corn (Zea mays); Zea mays, post-emergence, 240 h, Postemergence, read-out: Plant response rating (0 to 100 scale), Corn): 0%
plant injury at 500 g/ha (corn (Zea mays); Zea mays, pre-emergence, 240 h, Preemergence, read-out: Plant response rating (0 to 100 scale), Corn): 0%
Foxtail, Giant plant response rating (0 = no effect, 100 = complete control) ([7]; Preemergence, 125 g ai/ha): 0
pest or weed control at 125 g/ha ([7]; Setaria faberi, post-emergence, 240 h, Postemergence, 125 g ai/ha, read-out: Plant response rating (0 to 100 scale), Foxtail, Giant): 0%
pest or weed control at 500 g/ha ([7]; Setaria faberi, post-emergence, 240 h, Postemergence, read-out: Plant response rating (0 to 100 scale), Foxtail, Giant): 0%
pest or weed control at 500 g/ha ([7]; Setaria faberi, pre-emergence, 240 h, Preemergence, read-out: Plant response rating (0 to 100 scale), Foxtail, Giant): 0%
pest or weed control at 62 g/ha [8, 13]: 0%
pest or weed control at 125 g/ha [8, 13]: 0%
pest or weed control at 250 g/ha [8, 14]: 0%
pest or weed control at 62 g/ha [8, 15]: 0%
pest or weed control at 125 g/ha [8, 15]: 0%
pest or weed control at 250 g/ha ([8]; pre-emergence, Preemergence): 15%
pest or weed control at 500 g/ha [8, 16]: 40%
pest or weed control at 31 g/ha ([9]; post-emergence, Postemergence, 31 g ai/ha, read-out: Plant response rating (0 to 100), Blackgrass): 0%
pest or weed control at 62 g/ha [9, 17]: 0%
pest or weed control at 125 g/ha [9, 17]: 0%
pest or weed control at 250 g/ha [9, 14]: 0%
pest or weed control at 62 g/ha [9, 18]: 0%
pest or weed control at 125 g/ha [9, 18]: 0%
pest or weed control at 250 g/ha ([9]; pre-emergence, Preemergence): 0%
pest or weed control at 62 g/ha [10, 19]: 0%
pest or weed control at 125 g/ha [10, 19]: 0%
pest or weed control at 250 g/ha [10, 14]: 20%
pest or weed control at 62 g/ha [10, 20]: 5%
pest or weed control at 125 g/ha [10, 20]: 15%
pest or weed control at 250 g/ha ([10]; pre-emergence, Preemergence): 15%
pest or weed control at 500 g/ha [10, 16]: 40%
pest or weed control at 62 g/ha [11, 21]: 80%
pest or weed control at 125 g/ha [11, 21]: 85%
pest or weed control at 250 g/ha [11, 14]: 100%
pest or weed control at 62 g/ha [11, 22]: 45%
pest or weed control at 125 g/ha [11, 22]: 55%
pest or weed control at 250 g/ha ([11]; pre-emergence, Preemergence): 60%
pest or weed control at 500 g/ha [11, 16]: 80%
pest or weed control at 31 g/ha ([12]; post-emergence, Postemergence, 31 g ai/ha, read-out: Plant response rating (0 to 100), Crabgrass, Large): 0%
pest or weed control at 62 g/ha [12, 23]: 0%
pest or weed control at 125 g/ha [12, 23]: 0%
pest or weed control at 250 g/ha [12, 14]: 0%
pest or weed control at 62 g/ha [12, 24]: 0%
pest or weed control at 125 g/ha [12, 24]: 0%
pest or weed control at 250 g/ha ([12]; pre-emergence, Preemergence): 0%
pest or weed control at 500 g/ha [12, 16]: 30%
